Data taken from ChEMBL document CHEMBL3885881, “DrugMatrix”.

Species: Rattus norvegicus
Test: DrugMatrix - Regimen: Daily Repeat
Format: toxicity, organism-based, Sprague-Dawley
Set-up: regimen Daily Repeat, gender Male, age 6-8 weeks
Details: in vivo, po, route oral GAVAGE, […]; for ABSOLUTE BASOPHIL / ABSOLUTE EOSINOPHIL / ABSOLUTE LYMPHOCYTE / ABSOLUTE MONOCYTE / ABSOLUTE SEGMENTED NEUTROPHIL / BASOPHIL / EOSINOPHIL / ERYTHROCYTE COUNT / HEMATOCRIT / HEMOGLOBIN / LEUKOCYTE COUNT / LYMPHOCYTE / MEAN CORPUSCULAR HEMOGLOBIN / MEAN CORPUSCULAR HEMOGLOBIN CONCENTRATION / MEAN CORPUSCULAR VOLUME / MONOCYTE / NEUTROPHIL / NUCLEATED RED BLOOD CELLS / PLATELET COUNT: tissue Blood; for ALANINE AMINOTRANSFERASE / ALBUMIN / ALKALINE PHOSPHATASE / ASPARTATE AMINOTRANSFERASE / BLOOD UREA NITROGEN / CARBON DIOXIDE / CHLORIDE / CHOLESTEROL / CREATINE PHOSPHOKINASE / CREATININE / GLUCOSE / LACTATE DEHYDROGENASE / LIPASE / PHOSPHORUS / POTASSIUM / SODIUM / TOTAL BILIRUBIN / TOTAL PROTEIN / URIC ACID: tissue Plasma
[1] = 0 mg/kg, 72 h, dose level Control, time 3 day
[2] = 0 mg/kg, 120 h, dose level Control, time 5 day
[3] = 0 mg/kg, dose level Control, time 28 day
[4] = 20 mg/kg, 72 h, dose level Low, time 3 day

Compound: CCCCCCCCCc1ccc(O)cc1 [4-NONYLPHENOL]
- ABSOLUTE BASOPHIL [1]: 0 CELLS/uL
- ABSOLUTE EOSINOPHIL [1]: 0 CELLS/uL
- ABSOLUTE LYMPHOCYTE [1]: 11091.17 CELLS/uL
- ABSOLUTE MONOCYTE [1]: 172.17 CELLS/uL
- ABSOLUTE SEGMENTED NEUTROPHIL [1]: 1186.67 CELLS/uL
- BASOPHIL [1]: 0%
- EOSINOPHIL [1]: 0%
- ERYTHROCYTE COUNT [1]: 5.87 x10E6/uL
- HEMATOCRIT [1]: 36.87%
- HEMOGLOBIN [1]: 14.03 G/DL
- LEUKOCYTE COUNT [1]: 12.45 x10E3/uL
- LYMPHOCYTE [1]: 88.67%
- MEAN CORPUSCULAR HEMOGLOBIN [1]: 23.93 pg
- MEAN CORPUSCULAR HEMOGLOBIN CONCENTRATION [1]: 38.1 G/DL
- MEAN CORPUSCULAR VOLUME [1]: 62.73 fL
- MONOCYTE [1]: 1.5%
- NEUTROPHIL [1]: 9.83%
- NUCLEATED RED BLOOD CELLS [1]: 0 /100WBC
- PLATELET COUNT [1]: 1150.33 x10E3/uL
- ALANINE AMINOTRANSFERASE [1]: 67.17 u/L
- ALBUMIN [1]: 4.03 G/DL
- ALKALINE PHOSPHATASE [1]: 462.5 u/L
- ASPARTATE AMINOTRANSFERASE [1]: 88 u/L
- BLOOD UREA NITROGEN [1]: 13.17 mg/dL
- CARBON DIOXIDE [1]: 29.33 mmol/L
- CHLORIDE [1]: 101 MEQ/L
- CHOLESTEROL [1]: 69.17 mg/dL
- CREATINE PHOSPHOKINASE [1]: 292.5 u/L
- CREATININE [1]: 0.17 mg/dL
- GLUCOSE [1]: 167.5 mg/dL
- LACTATE DEHYDROGENASE [1]: 198.5 u/L
- LIPASE [1]: 10.67 u/L
- PHOSPHORUS [1]: 11.73 mg/dL
- POTASSIUM [1]: 5.91 MEQ/L
- SODIUM [1]: 143.3 MEQ/L
- TOTAL BILIRUBIN [1]: 0.18 mg/dL
- TOTAL PROTEIN [1]: 5.7 G/DL
- URIC ACID [1]: 1.3 mg/dL
- ABSOLUTE BASOPHIL [2]: 0 CELLS/uL
- ABSOLUTE EOSINOPHIL [2]: 64.33 CELLS/uL
- ABSOLUTE LYMPHOCYTE [2]: 12494.67 CELLS/uL
- ABSOLUTE MONOCYTE [2]: 117 CELLS/uL
- ABSOLUTE SEGMENTED NEUTROPHIL [2]: 1340.67 CELLS/uL
- NUCLEATED RED BLOOD CELLS [2]: 0 /100WBC
- CARBON DIOXIDE [2]: 29.17 mmol/L
- LACTATE DEHYDROGENASE [2]: 229.17 u/L
- LIPASE [2]: 10.83 u/L
- URIC ACID [2]: 1.55 mg/dL
- BASOPHIL [3]: 0.42%
- EOSINOPHIL [3]: 0.58%
- ERYTHROCYTE COUNT [3]: 8.06 x10E6/uL
- HEMATOCRIT [3]: 48.44%
- HEMOGLOBIN [3]: 16.34 G/DL
- LEUKOCYTE COUNT [3]: 13.04 x10E3/uL
- LYMPHOCYTE [3]: 85.12%
- MEAN CORPUSCULAR HEMOGLOBIN [3]: 20.26 pg
- MEAN CORPUSCULAR HEMOGLOBIN CONCENTRATION [3]: 33.74 G/DL
- MEAN CORPUSCULAR VOLUME [3]: 60.1 fL
- MONOCYTE [3]: 1.44%
- NEUTROPHIL [3]: 11.28%
- PLATELET COUNT [3]: 1226 x10E3/uL
- ALANINE AMINOTRANSFERASE [3]: 28.6 u/L
- ALBUMIN [3]: 3.94 G/DL
- ALKALINE PHOSPHATASE [3]: 254.6 u/L
- ASPARTATE AMINOTRANSFERASE [3]: 67.8 u/L
- BLOOD UREA NITROGEN [3]: 10.4 mg/dL
- CHLORIDE [3]: 104.6 MEQ/L
- CHOLESTEROL [3]: 57.6 mg/dL
- CREATINE PHOSPHOKINASE [3]: 224.8 u/L
- CREATININE [3]: 0.4 mg/dL
- GLUCOSE [3]: 140.6 mg/dL
- PHOSPHORUS [3]: 10.66 mg/dL
- POTASSIUM [3]: 6.58 MEQ/L
- SODIUM [3]: 148.6 MEQ/L
- TOTAL BILIRUBIN [3]: 0.24 mg/dL
- TOTAL PROTEIN [3]: 6.64 G/DL
- ABSOLUTE BASOPHIL [4]: 0 CELLS/uL
- ABSOLUTE EOSINOPHIL [4]: 45.67 CELLS/uL
- ABSOLUTE LYMPHOCYTE [4]: 11853.67 CELLS/uL
- ABSOLUTE MONOCYTE [4]: 45.67 CELLS/uL
- ABSOLUTE SEGMENTED NEUTROPHIL [4]: 988.33 CELLS/uL
- BASOPHIL [4]: 0%
- EOSINOPHIL [4]: 0.33%
- ERYTHROCYTE COUNT [4]: 5.99 x10E6/uL
- HEMATOCRIT [4]: 37.03%
- HEMOGLOBIN [4]: 14.3 G/DL
- LEUKOCYTE COUNT [4]: 12.93 x10E3/uL
- LYMPHOCYTE [4]: 91.67%
- MEAN CORPUSCULAR HEMOGLOBIN [4]: 23.9 pg
- MEAN CORPUSCULAR HEMOGLOBIN CONCENTRATION [4]: 38.6 G/DL
- MEAN CORPUSCULAR VOLUME [4]: 61.9 fL
- MONOCYTE [4]: 0.33%
- NEUTROPHIL [4]: 7.67%
- NUCLEATED RED BLOOD CELLS [4]: 0 /100WBC
- PLATELET COUNT [4]: 1126 x10E3/uL
- ALANINE AMINOTRANSFERASE [4]: 75.33 u/L
- ALBUMIN [4]: 3.8 G/DL
- ALKALINE PHOSPHATASE [4]: 451.33 u/L
- ASPARTATE AMINOTRANSFERASE [4]: 100 u/L
- BLOOD UREA NITROGEN [4]: 13 mg/dL
- CARBON DIOXIDE [4]: 24.67 mmol/L
- CHLORIDE [4]: 102.67 MEQ/L
- CHOLESTEROL [4]: 62.67 mg/dL
- CREATINE PHOSPHOKINASE [4]: 371 u/L
- CREATININE [4]: 0.19 mg/dL
- GLUCOSE [4]: 168.67 mg/dL
- LACTATE DEHYDROGENASE [4]: 255.33 u/L
- LIPASE [4]: 9.67 u/L
- PHOSPHORUS [4]: 11.97 mg/dL
- POTASSIUM [4]: 5.3 MEQ/L
- SODIUM [4]: 143.8 MEQ/L
- TOTAL BILIRUBIN [4]: 0.2 mg/dL
- TOTAL PROTEIN [4]: 5.33 G/DL
- URIC ACID [4]: 1.77 mg/dL
